# Data from patent publication US12201591B2, “Sustained release compositions of endoxifen” (Atossa Therapeutics, Inc., priority 2019, dated 2025).
# “And” between values parts separate entries of the source, which are not always exact repeats. Equal values may be shown once. Read-outs that look alike come from different tables or passages of the source.
# Assays:
# [1] = Phase I pharmacokinetic study of (Z)-endoxifen tablet and capsule, single and multiple dose; type: in vivo, human; details: for (E)-endoxifen levels in serum and plasma: all the times studied
# Experimental: A total of 24 healthy female subjects aged ≥18 years and ≤65 years (inclusive) at the time of screening were randomly assigned and enrolled into two groups (each group n=12) in double-blinded fashion and received the study drug by once daily oral administration. […] Both groups were dosed in the SAD phase of the study. The safety and PK results from both groups were reviewed to determine if both Groups 1 and 2 were to be dosed in the MAD phase of the study, or if only Group 2 (tablets) were to be dosed in the MAD phase. […] The subjects then received 14 daily doses in the MAD. Subjects were not required to take the drugs with food.
# Subjects were admitted to the clinical facility on Day 1 for up to 3 days. […] Following completion of all safety assessments and sampling for PK analyses, subjects were discharged from the clinical facility on Day 2. Days 2 to 25 were study drug free or daily dosing pause. A safety summary and up to day 6 post dose, PK data were analyzed (blindedly) and reviewed prior to initiation of the MAD regimen in one or both groups.
# MAD regimen started on Day 26. Depending on the outcome of the safety and PK review, wither […] or both Groups 1 and 2 were to be dosed in the MAD part of the study starting on Day 26. […] Subjects in MAD part of the study commenced daily oral administration of the study drug for 14 consecutive days (Days 26 to 39). Subjects were supplied with study drug and instructed to self-administer each morning on empty stomach.
# Day 39 was the last day of study drug administration. On Day 39, each subject returned to the clinical facility prior to dose administration and were confined to the facility until Day 40 to allow for collection of blood for PK and safety assessment. Subjects were discharged on Day 40 and returned for blood collection for PK and safety assessment on study Days 42, 44, and 46.
# Safety and PK samples was collected during the daily dosing pause on Days 4, 6, 15, and 22.
# MAD: Day 26 pre-dose and on Day 32 pre-dose: safety and PK samples was collected. […] Pharmacokinetic parameters determined using Phoenix WinNonlin 8.1. All times used in the calculations of PK parameters were the actual elapsed time from most recent treatment administration, with the exception of pre-dose data which was given the nominal time of 0.00 hr.
# [2] = Phase 2 clinical trial of oral endoxifen: safety and tolerability; type: in vivo, human; details: 4 mg/day, 16-40 days
# Experimental: Secondary effects of orally administered (Z)-endoxifen were also assessed, namely the effect of pre-operative (Z)-endoxifen treatment on the expression levels of estrogen receptor and progesterone receptor. […] Additional exploratory objectives including assessing the effect of pre-operative (Z)-Endoxifen treatment on PCNA (S phase), phospho-Histone H3 (M phase), p16 and p21 (senescence), Beta-Galactosidase (senescence), and TUNEL (apoptosis) markers, and identifying tumor RNA expression changes using RNA sequence.
# An initial group of six subjects was selected. Subjects visited the clinical facility once within 2 days prior to commencement of treatment for study assessments. […]
# Each subject returned to the clinical facility for safety assessments on a day during the week preceding their scheduled surgery. The expression of Ki-67, ER, progesterone receptor (PgR), and other exploratory markers, was measured in tumor tissue obtained during the mastectomy (or lumpectomy) and compared to the expression of these markers in pre-operative baseline biopsy material obtained prior to commencement of study treatment. […] Ki-67, ER, PgR expression were measured using standard immunopathology techniques, and exploratory markers were measured using established laboratory assays. Endoxifen levels in blood measured in blood drawn prior to dosing on day 14 of study treatment administration. […]
# [3] = Safety, tolerability and pharmacokinetics of (Z)-Endoxifen in healthy female volunteers (Protocol AG-1001-AU-001); type: in vivo, human
# Experimental: The safety, tolerability and pharmacokinetics of (Z)-Endoxifen was assessed in healthy female volunteers (Protocol AG-1001-AU-001). Participants were treated with oral (Z)-Endoxifen (1 mg, 2 mg and 4 mg) once daily for a total of fifteen doses (Days 1, and 8-21).
# Average concentration at steady state (AUCtau/tau) were compared to published values.
# [4] = test system: breast cancer tumor cell proliferation (Ki-67); assay: Phase 2 clinical trial of oral endoxifen: Ki-67 in breast cancer tumors; type: in vivo, human
# Experimental: A phase 2 clinical trial of (Z)-endoxifen for treatment of breast cancer was performed. Subjects with invasive breast cancer were administered (Z)-endoxifen orally prior to undergoing mastectomy or lumpectomy. The effect of pre-operative oral (Z)-endoxifen treatment on clinical response measured by Ki-67 expression levels was assessed. Ki-67 expression levels were used as a measure of tumor cell proliferation in the subjects. The purpose of this study was to determine the effect of orally administered endoxifen on breast cancer tumor cell proliferation.
# Subjects were selected who had received an invasive breast cancer diagnosis that required a mastectomy or lumpectomy, in which the cancer was Estrogen Receptor (ER) positive and Human Epidermal growth factor Receptor 2 (HER2) negative.
# Subjects with ER positive invasive breast cancer that were scheduled for mastectomy or lumpectomy were considered for the study. Subjects consenting to the study were screened within 28 days prior to commencement of the dosing. Potential subjects were asked to consent to have tissue sections obtained from the biopsy material used for their immunopathology diagnosis. The biopsy material was used to determine baseline expression levels for Ki-67, ER, PgR and the exploratory markers.
# An initial group of six subjects was selected. Subjects visited the clinical facility once within 2 days prior to commencement of treatment for study assessments. Subjects were supplied with study drug and were asked to self-administer daily. A study diary was provided to each subject for the purpose of recording study drug administration (date and time) and any adverse events. All subjects received an oral daily dose of 4 mg/day (Z)-Endoxifen until the day preceding their scheduled surgery and for a minimum of 14-days. Subjects were instructed to take each dose in the morning in a fasted state, defined as no food at least 8 hours prior to study medication through to one hour following study medication. Subjects were instructed to self-administer (Z)-Endoxifen orally with a full cup (approximately 240 mL) of noncarbonated room temperature water (additional water is permitted, if needed). There are no restrictions related to water intake. Consecutive doses were administered 24 (±2) hours apart. If a scheduled dose was missed, the dose could be taken up to 6 hours after the scheduled dose.
# Each subject returned to the clinical facility for safety assessments on a day during the week preceding their scheduled surgery. The expression of Ki-67, ER, progesterone receptor (PgR), and other exploratory markers, was measured in tumor tissue obtained during the mastectomy (or lumpectomy) and compared to the expression of these markers in pre-operative baseline biopsy material obtained prior to commencement of study treatment. Pharmacodynamic exploratory markers including Proliferating cell nuclear antigen (PCNA, S phase), phosphor-histone H3 (M phase), p16 and […] (senescence), beta-galactosidase (senescence), Terminal deoxynucleotidyl transferase dUTP nick end labeling (TUNEL, apoptosis), and RNA sequence were assessed. Ki-67, ER, PgR expression were measured using standard immunopathology techniques, and exploratory markers were measured using established laboratory assays. Endoxifen levels in blood measured in blood drawn prior to dosing on day 14 of study treatment administration. Individual and mean serum and plasma concentrations of Endoxifen were tabulated.
# [5] = cited from earlier work
# [6] = Forced degradation (acid, base, heat, oxidation); type: physicochemical
# [7] = Phase I study: safety and tolerability of (Z)-endoxifen tablet and capsule; type: in vivo, human
# Excerpt: The primary objective of the study was to determine and compare the pharmacokinetics of a single oral dose of a previously studied oral (Z)-endoxifen capsule with a sustained release composition in the form of an enteric coated delayed release (Z)-endoxifen tablet (“tablet”) in healthy female volunteers. […] A secondary objective of the study was to assess the safety and tolerability of each of the oral presentation groups and to assess and compare the side effects associated with (Z)-endoxifen (capsule) or the enteric coated delayed-release (Z)-endoxifen tablet using a questionnaire.
# A study diary was provided to each participant for the purpose of recording study drug administration (date and time) and adverse events.
# Study assessments included taking the subjects' medical history, including evaluation of any on-study adverse events and concomitant medication use; height and weight; physical examination; periodic vital signs (body temperature, heart rate, respiratory rate, blood pressure); periodic 12-lead ECGs. Laboratory tests included hematology, coagulation, urinalysis, serum chemistry, virology, illicit drug screen, alcohol breath test, and pregnancy test.
# Specific assessment to evaluate treatment safety included the following: the frequency and type of adverse events, clinical laboratory testing, 12-lead-ECGs and vital signs. A modified FACTES® scoring questionnaire was used to assess symptomatology.
# [8] = multiple administration dose phase
# [9] = single administration dose phase
smiles,measurement,setting,value
CCC(=C(c1ccc(O)cc1)c1ccc(OCCNC)cc1)c1ccccc1 [(E)-endoxifen],(E)-endoxifen levels in serum and plasma,[1]; [8],undetectable
same,(E)-endoxifen levels in serum and plasma,[1]; [9],undetectable
"CCC(=C(c1ccc(O)cc1)c1ccc(OCCNC)cc1)c1ccccc1 [(Z)-endoxifen, 4-hydroxy-N-desmethyl-tamoxifen]","safety or tolerability issues, including vasomotor symptoms",[2],no safety or tolerability issues
same,% Ratio of Css Study (serum)/Literature (plasma),[3]; 1 mg dose,154%
same,Study Result of Average Serum (Z)-Endoxifen Css,[3]; 1 mg dose,19.1 ng/mL and 51.1 nM
same,Cmax and AUC24 hr across the three dose levels,"[3]; 1 mg, 2 mg and 4 mg",dose-proportionality
same,safety signals,"[3]; 1 mg, 2 mg and 4 mg once daily, fifteen doses",no clinically significant safety signals
same,% Ratio of Css Study (serum)/Literature (plasma),[3]; 2 mg dose,204%
same,Study Result of Average Serum (Z)-Endoxifen Css,[3]; 2 mg dose,38 ng/mL and 101.7 nM
same,% Ratio of Css Study (serum)/Literature (plasma),[3]; 4 mg dose,150%
same,Study Result of Average Serum (Z)-Endoxifen Css,[3]; 4 mg dose,85.1 ng/mL and 227.9 nM
same,half-life,"[3]; female, human, serum, oral, 1 mg, 2 mg and 4 mg, read-out: mean half-life (t1/2) by dose level",42 to 53 h
same,time to steady state,[3]; once daily dosing,approximately 7 days
same,commonly occurring adverse events with a relationship of possible or probable,[3]; only reported in participants who received (Z)-Endoxifen,"upper respiratory infection, hot flush, abdominal distension, dry mouth and menstruation delayed"
same,tolerability,"[3]; single dose and then daily for 14 days, 1 mg, 2 mg and 4 mg",well tolerated
same,"Ki-67% reduction, AVERAGE","[4]; initial results, six subjects, 4 mg/day, average 22 days",69%
same,Ki-67 reduction in every patient,"[4]; six subjects, 4 mg/day",more than 50%
same,Ki-67 level after Endoxifen treatment (all patients),"[4]; six subjects, 4 mg/day, 16-40 days",low (low (defined as less than ˜14%))
same,Ki-67% reduction,[4]; subject R1001,60%
same,Post Endoxifen Ki-67%,"[4]; subject R1001, 21 days on Endoxifen 4 mg, pre 5%",2%
same,Ki-67% reduction,[4]; subject R1002,60%
same,Post Endoxifen Ki-67%,"[4]; subject R1002, 23 days on Endoxifen 4 mg, pre 20%",8%
same,Ki-67% reduction,[4]; subject R1003,87%
same,Post Endoxifen Ki-67%,"[4]; subject R1003, 17 days on Endoxifen 4 mg, pre 90%",12%
same,Ki-67% reduction,[4]; subject R1004,91%
same,Post Endoxifen Ki-67%,"[4]; subject R1004, 17 days on Endoxifen 4 mg, pre 22%",2%
same,Ki-67% reduction,[4]; subject R1005,60%
same,Post Endoxifen Ki-67%,"[4]; subject R1005, 40 days on Endoxifen 4 mg, pre 25%",10%
same,Ki-67% reduction,[4]; subject R1006,58%
same,Post Endoxifen Ki-67%,"[4]; subject R1006, 16 days on Endoxifen 4 mg, pre 12%",5%
same,"Ki-67 levels following treatment, all six patients",[4]; subsequent results,below 25%
same,"average reduction in tumor cell proliferation, as measured by Ki-67","[4]; subsequent results, 22 days of dosing, six subjects, p=0.031",about 74%
same,Published Literature Result of Average Plasma (Z)-Endoxifen Css,[5]; 1 mg dose,12.4 ng/mL and 33.1 nM
same,Published Literature Result of Average Plasma (Z)-Endoxifen Css,[5]; 2 mg dose,18.6 ng/mL and 49.8 nM
same,Published Literature Result of Average Plasma (Z)-Endoxifen Css,[5]; 4 mg dose,56.8 ng/mL and 152.1 nM
same,Published Literature Result of Average Plasma (Z)-Endoxifen Css,[5]; 8 mg dose,96.8 ng/mL and 259.2 nM
same,% degradation,[6]; Acid: 0.5N HCl for 27 hrs,No degradation
same,% degradation,[6]; Base: 0.5N NaOH for 27 hrs,0.12%
same,% degradation,[6]; Heat: 105° C. for 51 hrs,No degradation
same,Plasma (Z)-endoxifen level,[1]; by Day 26 (600 hours post-dose),below the detection levels
same,concentration at 14 days,"[1]; female, human, blood, oral, 14 once daily 4 mg doses, read-out: (Z)-endoxifen maintained in the blood",~13 ng/mL and > 30 nM
same,mean serum versus time-point matched mean plasma (Z)-endoxifen concentration,[1]; [8],approximately 1.2 fold
same,time to achieve steady state levels of plasma and serum (Z)-endoxifen,[1]; once daily 4 mg doses,approximately 14 days
same,mean serum versus time-point matched mean plasma (Z)-endoxifen concentration,[1]; [9],approximately 1.1 fold
same,"night sweats reported, percent of subjects","[7]; multiple dose administration phase, 2 of 19 subjects",11%
same,"hot flash reported, percent of subjects","[7]; multiple dose administration phase, 4 of the 18 subjects",22%
same,"hot flash reported, percent of subjects","[7]; single dose administration phase, 2 of 18 subjects",11%
CC/C(=C(\c1ccc(O)cc1)c1ccc(OCCNC)cc1)c1ccccc1.Cl [Endoxifen Chloride],(Z)-Endoxifen Plasma,"[5]; 20 mg/day, Aromatase Inhibitor Refractory Metastatic Breast Cancer, Goetz et al. 2013",390 nM
same,Outcomes,"[5]; 20 mg/day, Goetz et al. 2013",Gr 2 hot flash (1
same,(Z)-Endoxifen Plasma,"[5]; 40 mg/day, Aromatase Inhibitor Refractory Metastatic Breast Cancer, Goetz et al. 2013",660 nM
same,Outcomes,"[5]; 40 mg/day, Goetz et al. 2013",None; Stable disease
same,(Z)-Endoxifen Plasma,"[5]; 60 mg/day, Aromatase Inhibitor Refractory Metastatic Breast Cancer, Goetz et al. 2013","1,010 nM"
same,Outcomes,"[5]; 60 mg/day, Goetz et al. 2013",Gr 4 Triglycerides
same,(Z)-Endoxifen Plasma,"[5]; 80 mg/day, Aromatase Inhibitor Refractory Metastatic Breast Cancer, Goetz et al. 2013","1,610 nM"
same,Outcomes,"[5]; 80 mg/day, Goetz et al. 2013",Gr 2 Hot flashes
same,(Z)-Endoxifen Plasma,"[5]; 100 mg/day, Aromatase Inhibitor Refractory Metastatic Breast Cancer, Goetz et al. 2013","2,480 nM"
same,Outcomes,"[5]; 100 mg/day, Goetz et al. 2013",Gr 2 nausea (1 pt); Gr
same,(Z)-Endoxifen Plasma,"[5]; 120 mg/day, Aromatase Inhibitor Refractory Metastatic Breast Cancer, Goetz et al. 2013","2,180 nM"
same,Outcomes,"[5]; 120 mg/day, Goetz et al. 2013","Gr 2 hypersomnia,"
same,Outcomes: maximum tolerated dose,"[5]; 20->160 mg/day, Goetz et al. 2015","not observed. 1 DLT,"
same,(Z)-Endoxifen Plasma,"[5]; 160 dose (20->160 mg/day), Goetz et al. 2015","3,600 nM"
